Data on 30 compounds can be found in patent US7435736B2, “Substituted 1-piperidin-4-yl-4-azetidin-3-yl-piperazine derivatives and their use as neurokinin antagonists” (Janssen Pharmaceutica, N.V., priority 2002, dated 2008).

One assay addresses h-NK1 (Homo sapiens, UniProt P25103). Nature of the assay: Signal transduction (ST), intracellular Ca++ FLIPR, NK1 antagonistic activity. The following applies: read-out: pIC50 h-NK1 (converted). In kind it is cell-based. The protocol: (§1) This test evaluates in vitro functional NK1, NK2 and NK3 antagonistic activity. For the measurements of intracellular Ca^++ concentrations the cells were grown on 96-well (black wall/transparent bottom) plates from Costar for 2 days until they reached confluence. The cells were loaded with 2 μM Fluo3 in DMEM containing 0.1% BSA and 2.5 mM probenecid for 1 h at 37° C. They were washed 3× with a Krebs buffer (140 mM NaCl, 1 mM MgCl2×6H2O, 5 mM KCl, 10 mM glucose, 5 mM HEPES; 1.25 mM CaCl2; pH 7.4) containing 2.5 mM probenecid and 0.1% BSA (Ca^++-buffer). The cells were preincubated with a concentration range of antagonists for 20 min at RT and Ca^++-signals after addition of the agonists were measured in a Fluorescence Image Plate Reader (FLIPR from Molecular Devices, Crawley, England). The peak of the Ca^++-transient was considered as the relevant signal and the mean values of corresponding wells were analysed as described below.
(§2) The sigmoidal dose response curves were analysed by computerised curve-fitting, using the GraphPad Program. The EC50-value of a compound is the effective dose showing 50% of maximal effect. For mean curves the response to the agonist with the highest potency was normalised to 100%. For antagonist responses the IC50-value was calculated using non-linear regression. […]

A further assay concerns the target T1, h-NK3 (Homo sapiens, UniProt P29371).
T1 sequence (P29371 1-465): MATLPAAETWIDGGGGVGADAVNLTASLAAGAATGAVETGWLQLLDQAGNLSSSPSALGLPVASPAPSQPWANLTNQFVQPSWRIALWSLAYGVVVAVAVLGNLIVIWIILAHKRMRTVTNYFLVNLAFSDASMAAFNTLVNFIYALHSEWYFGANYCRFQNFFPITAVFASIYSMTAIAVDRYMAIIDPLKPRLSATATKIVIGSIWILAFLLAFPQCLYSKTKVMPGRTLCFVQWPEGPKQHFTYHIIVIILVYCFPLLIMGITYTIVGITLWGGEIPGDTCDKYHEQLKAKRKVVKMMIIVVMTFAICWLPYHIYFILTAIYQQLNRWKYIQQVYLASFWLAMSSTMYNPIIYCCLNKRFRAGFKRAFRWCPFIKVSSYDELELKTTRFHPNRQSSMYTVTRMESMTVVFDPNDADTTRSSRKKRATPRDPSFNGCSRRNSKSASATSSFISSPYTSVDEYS
Nature of the assay: Signal transduction (ST), intracellular Ca++ FLIPR, NK3 antagonistic activity. Type of assay: cell-based. The following applies: read-out: pIC50 h-NK3 (converted). How it is done: as §1, §2

The target in a further assay is T2, h-NK2 (Homo sapiens, UniProt P21452).
T2 sequence (P21452 1-398): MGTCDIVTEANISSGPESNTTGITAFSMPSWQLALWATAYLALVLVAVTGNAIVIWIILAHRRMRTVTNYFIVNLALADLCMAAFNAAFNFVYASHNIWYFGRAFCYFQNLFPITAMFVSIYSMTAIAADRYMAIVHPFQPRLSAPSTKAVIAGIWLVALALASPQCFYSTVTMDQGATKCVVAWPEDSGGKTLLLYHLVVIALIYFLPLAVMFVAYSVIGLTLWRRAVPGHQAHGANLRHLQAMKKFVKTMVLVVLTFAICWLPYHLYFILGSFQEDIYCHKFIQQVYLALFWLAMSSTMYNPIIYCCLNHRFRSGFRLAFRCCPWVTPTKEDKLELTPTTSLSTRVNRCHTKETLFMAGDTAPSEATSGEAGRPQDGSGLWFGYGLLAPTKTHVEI
Nature of the assay: Signal transduction (ST), intracellular Ca++ FLIPR, NK2 antagonistic activity. Type of assay: cell-based. The following applies: read-out: pIC50 h-NK2 (converted). How it is done: as §1, §2

The subject of assay [1] is NK1 agonist-induced vocalisation response. The conditions noted are these: guinea-pigs; cited from earlier work.
In the next assay the test system is cisplatin-induced emesis. The following applies: acute and delayed phase, animals; cited from earlier work.
The next assay relates to acute emesis. The conditions noted are these: administered together with dexamethasone and 5-HT3 antagonists; cited from earlier work.
For another assay, the system named is schizophrenic patients. The conditions noted are these: without affecting negative symptoms; cited from earlier work.
A further assay concerns major depression. The conditions noted are these: data not conclusive due to high placebo response rate; cited from earlier work.
Assay [2] has as its system chemotherapy- and radiation-induced sickness in cancer patients. The conditions noted are these: cited from earlier work; for reduction of the development of delayed emesis: >24 h; for control of the acute emetic phase: first 24 h, either or not associated with dexamethasone.
The test system of the next assay is dopamine release. The conditions noted are these: frontal cortex vs striatum; cited from earlier work.

Some results are limits rather than exact numbers.

Sequence of h-NK1 (P25103 whole entry): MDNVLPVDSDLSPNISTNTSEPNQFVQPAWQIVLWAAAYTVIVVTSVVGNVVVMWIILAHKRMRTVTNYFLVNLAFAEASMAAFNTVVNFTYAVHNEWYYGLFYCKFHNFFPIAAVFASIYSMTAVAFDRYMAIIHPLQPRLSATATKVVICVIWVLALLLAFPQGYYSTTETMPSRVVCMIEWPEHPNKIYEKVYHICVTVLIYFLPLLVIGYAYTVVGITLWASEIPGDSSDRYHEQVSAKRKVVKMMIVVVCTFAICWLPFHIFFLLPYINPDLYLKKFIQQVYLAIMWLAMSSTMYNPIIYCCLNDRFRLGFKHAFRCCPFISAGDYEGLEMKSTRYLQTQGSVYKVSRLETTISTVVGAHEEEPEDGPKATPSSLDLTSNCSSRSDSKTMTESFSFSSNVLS

As for `O=C(c1ccccc1)N1CC(N2CCN(C3CCN(C(=O)c4cc(C(F)(F)F)cc(C(F)(F)F)c4)C(Cc4ccccc4)C3)CC2)C1` (stereo not drawn) [Compound 3], the IC50 at h-NK1 is 19.5 nM.

As for `CC(C)(C)OC(=O)N1CCC[C@@H]1C(=O)N1CC(N2CCN([C@H]3CCN(C(=O)c4cc(C(F)(F)F)cc(C(F)(F)F)c4)[C@H](Cc4ccccc4)C3)CC2)C1` [Compound 22], the results for the IC50 on h-NK1, on h-NK3 and on h-NK2 were 37.2 nM, 1820 nM and 5500 nM, respectively. In the case of `CNCCC(Oc1ccc(C(F)(F)F)cc1)c1ccccc1` (stereo not drawn) [fluoxetine], the “antagonism of NK1 agonist-induced vocalisation response” value (from here on “antagonism”) in [1] was “antagonised”. With `O=C(c1cc(C(F)(F)F)cc(C(F)(F)F)c1)N1CCC(N2CCN(C3CN(S(=O)(=O)c4cccs4)C3)CC2)CC1Cc1ccccc1` (stereo not drawn) [Compound 15], the IC50 is 32.4 nM on h-NK1, 1230 nM at h-NK3 and 5500 nM on h-NK2. As to `COc1ccccc1CN[C@H]1CCCN[C@H]1c1ccccc1` [CP-99,994], the “inhibition of cisplatin-induced emesis” value in the assay with cisplatin-induced emesis is “inhibit not only the acute but also the delayed phase”. Take `O=C(c1ccsc1)N1CC(N2CCN(C3CCN(C(=O)c4cc(C(F)(F)F)cc(C(F)(F)F)c4)C(Cc4ccccc4)C3)CC2)C1` (stereo not drawn) [Compound 8]: the IC50 at h-NK1 was 204 nM. Same read-out and setting: the same measure for `O=C(c1ccoc1)N1CC(N2CCN([C@H]3CCN(C(=O)c4cc(C(F)(F)F)cc(C(F)(F)F)c4)[C@H](Cc4ccccc4)C3)CC2)C1` [Compound 9]: 55 nM; for `N#Cc1cccc(C(=O)N2CC(N3CCN([C@H]4CCN(C(=O)c5cc(C(F)(F)F)cc(C(F)(F)F)c5)[C@H](Cc5ccccc5)C4)CC3)C2)c1` [Compound 4]: 45.7 nM.

Turning to `COc1ccc(C(C)C)cc1CN[C@H]1C2CCN(CC2)[C@H]1C(c1ccccc1)c1ccccc1` [CJ-11,974, Ezlopitant], the “prevention of acute emesis” value with acute emesis is on record as “additional effects”. Regarding `CC(C(=O)N1CC(N2CCN([C@H]3CCN(C(=O)c4cc(C(F)(F)F)cc(C(F)(F)F)c4)[C@H](Cc4ccccc4)C3)CC2)C1)c1ccccc1` (stereo partly drawn) [Compound 14], the IC50 on h-NK1 is 22.9 nM; on h-NK3, 631 nM; on h-NK2 it was 3980 nM. Taken in the same sequence, the figures for `O=C([C@H]1CCOC1)N1CC(N2CCN([C@H]3CCN(C(=O)c4cc(C(F)(F)F)cc(C(F)(F)F)c4)[C@H](Cc4ccccc4)C3)CC2)C1` [Compound 12] were 43.7 nM, no less than 10000 nM and no less than 10000 nM. Turning to `O=C(c1cc(C(F)(F)F)cc(C(F)(F)F)c1)N1CCC(N2CCN(C3CNC3)CC2)CC1Cc1ccccc1` (stereo not drawn) [Compound 2], the IC50 on h-NK1 was 123 nM. On to `O=C(c1ccc(F)c(F)c1)N1CC(N2CCN([C@H]3CCN(C(=O)c4cc(C(F)(F)F)cc(C(F)(F)F)c4)[C@H](Cc4ccccc4)C3)CC2)C1` [Compound 5], for which the IC50 on h-NK1 was 102 nM.

Regarding `CN(C)CCCN1c2ccccc2CCc2ccccc21` [imipramine], in assay [1], the “antagonism” value is “antagonised”. On to `CC(C)(C)C(=O)N1CC(N2CCN([C@H]3CCN(C(=O)c4cc(C(F)(F)F)cc(C(F)(F)F)c4)[C@H](Cc4ccccc4)C3)CC2)C1` [Compound 17], for which the IC50 on h-NK1 was 11 nM; at h-NK3 it was 5500 nM; at h-NK2, no less than 10000 nM. On to `O=C(c1cccnc1)N1CC(N2CCN([C@H]3CCN(C(=O)c4cc(C(F)(F)F)cc(C(F)(F)F)c4)[C@H](Cc4ccccc4)C3)CC2)C1` [Compound 6], for which, at h-NK1, the IC50 was 49 nM. For `CC(=O)N(C)C1(c2ccccc2)CCN(CCC[C@]2(c3ccc(Cl)c(Cl)c3)CCCN(C(=O)c3ccccc3)C2)CC1` [SR142801], the antipsychotic activity entry in the assay on schizophrenic patients was “antipsychotic activity”.

For `O=C(C1CC1)N1CC(N2CCN([C@H]3CCN(C(=O)c4cc(C(F)(F)F)cc(C(F)(F)F)c4)[C@H](Cc4ccccc4)C3)CC2)C1` [Compound 10], on h-NK1, the IC50 was 63.1 nM. On to `C[C@@H](O[C@H]1OCCN(Cc2n[nH]c(=O)[nH]2)[C@H]1c1ccc(F)cc1)c1cc(C(F)(F)F)cc(C(F)(F)F)c1` [aprepitant], for which the “inhibition of cisplatin-induced emesis” value with cisplatin-induced emesis is listed as “inhibit not only the acute but also the delayed phase”. Besides, the antidepressant effects entry in the assay on major depression was “antidepressant effects”. The “prevention of acute emesis” value in the assay on acute emesis was “additional effects”.

For the compound `CC(C)(C)OC(=O)NC(C)(C)C(=O)N1CC(N2CCN([C@H]3CCN(C(=O)c4cc(C(F)(F)F)cc(C(F)(F)F)c4)[C@H](Cc4ccccc4)C3)CC2)C1` [Compound 13], the IC50 on h-NK1 is 33.9 nM; on h-NK3, no less than 10000 nM; on h-NK2 it was no less than 10000 nM. Take `CN1C2CCCC1CC(NC(=O)c1nn(C)c3ccccc13)C2` (stereo not drawn) [granisetron]: in assay [2], the “reduction of the development of delayed emesis” value was “poor efficacy” and the “control of the acute emetic phase” value is given as “effective”. With `O=C(C1CCOC1)N1CC(N2CCN(C3CCN(C(=O)c4cc(C(F)(F)F)cc(C(F)(F)F)c4)C(Cc4ccccc4)C3)CC2)C1` (stereo not drawn) [Compound 11], the IC50 is 10.5 nM on h-NK1, no less than 10000 nM at h-NK3 and no less than 10000 nM at h-NK2. `O=C(c1cc(C(F)(F)F)cc(C(F)(F)F)c1)N1CCC(N2CCN(C3CN(c4cnccn4)C3)CC2)CC1Cc1ccccc1` (stereo not drawn) [Compound 19]: the IC50 was 45.7 nM on h-NK1, no less than 10000 nM at h-NK3 and no less than 10000 nM at h-NK2. Take `FC(F)(F)c1cc(CO[C@H]2CCCN[C@H]2c2ccccc2)cc(C(F)(F)F)c1` [L-733,060]: the “antagonism” value in [1] was “antagonised”. With `COc1ccc(-n2nnnc2C(F)(F)F)cc1CN[C@H]1CCCN[C@H]1c1ccccc1` [(S)-GR205,171], in the assay with dopamine release, the dopamine release result is recorded as “enhance dopamine release in the frontal cortex but not in the striatum”. Turning to `O=C(c1ccccc1Cl)N1CC(N2CCN([C@H]3CCN(C(=O)c4cc(C(F)(F)F)cc(C(F)(F)F)c4)[C@H](Cc4ccccc4)C3)CC2)C1` [Compound 18], the values for the IC50 at h-NK1, on h-NK3 and at h-NK2 were 10.5 nM, 4370 nM and no less than 10000 nM, respectively. Turning to `Cc1nnsc1C(=O)N1CC(N2CCN([C@H]3CCN(C(=O)c4cc(C(F)(F)F)cc(C(F)(F)F)c4)[C@H](Cc4ccccc4)C3)CC2)C1` [Compound 16], the IC50 was 7.41 nM on h-NK1, 4900 nM on h-NK3 and no less than 10000 nM on h-NK2.

Consider `Cc1nccn1CC1CCc2c(c3ccccc3n2C)C1=O` (stereo not drawn) [ondansetron], for which, in [2], the “reduction of the development of delayed emesis” value is “poor efficacy” and the “control of the acute emetic phase” value is given as “effective”. As for `Cc1cc(C(=O)N2CC(N3CCN([C@H]4CCN(C(=O)c5cc(C(F)(F)F)cc(C(F)(F)F)c5)[C@H](Cc5ccccc5)C4)CC3)C2)n(C)n1` [Compound 7], the IC50 on h-NK1 was 72.4 nM; at h-NK3, 3470 nM.

As to `O=C(c1cnccn1)N1CC(N2CCN([C@H]3CCN(C(=O)c4cc(C(F)(F)F)cc(C(F)(F)F)c4)[C@H](Cc4ccccc4)C3)CC2)C1` [Compound 20], the values for the IC50 on h-NK1, on h-NK3 and on h-NK2 were 41.7 nM, 8130 nM and no less than 10000 nM, respectively.
